Assay results published in PMC8648660, “Multifunctional thiosemicarbazones targeting sigma receptors: in vitro and in vivo antitumor activities in pancreatic cancer models” (Cellular Oncology, 2021).
pEC50: −log10 of the molar value.

How the values were obtained:
[1] = test system: GRP78, ATF6, IRE1 and PERK; experiment: qRT-PCR of ER stress markers in pancreatic cancer cells; format: cell-based, human and murine; conditions: 50 µM, 2 h
Procedure: Total RNA was extracted using a phenol/chloroform method, after which 1 µg RNA was reverse-transcribed using an iScript Reverse Transcription Supermix kit according to the manufacturer’s instructions (Bio-Rad Laboratories). 25 ng cDNA was amplified using 10 µl of an IQ™ SYBR Green Supermix (Bio-Rad Laboratories). Primers were designed using qPrimer Depot software (http://primerdepot.nci.nih.gov/). qRT-PCR was carried out using an iQ^TM5 cycler (Bio-Rad Laboratories). The cycling conditions used were: 30 s at 95 °C, followed by 40 cycles of denaturation (15 s at 95 °C) and annealing/extension (30 s at 60 °C). The same cDNA preparations were used to quantify the expression of genes of interest and that of the housekeeping gene S14, which was used to normalize the gene expression levels. Relative quantitation of each sample was performed using Gene Expression Quantitation software (Bio-Rad Laboratories). The results were expressed in arbitrary units. For each gene, the expression level in untreated cells was arbitrarily set at “1”.

BxPC3 cells = test system: BxPC3 cells; design: method as in PMID 29287249; conditions: cited from earlier work
AspC1 cells = test system: AspC1 cells; design: method as in PMID 29287249; conditions: cited from earlier work
MiaPaCa2 cells = test system: MiaPaCa2 cells; design: method as in PMID 29287249; conditions: cited from earlier work
HPDE cells = test system: HPDE cells; design: method as in PMID 29287249; conditions: read-out: Activity EC50, HPDE (normal cells); cited from earlier work
KP02 cells = test system: KP02 cells; design: method as in PMID 29287249; conditions: cited from earlier work
PANC02 cells = test system: PANC02 cells; design: method as in PMID 29287249; conditions: cited from earlier work
PANC-1 cells = test system: PANC-1 cells; design: method as in PMID 29287249; conditions: cited from earlier work
[2] = Systemic toxicity and hematochemical parameters of treated PANC-1 tumor-bearing mice; conditions: gemcitabine 20 mg/kg twice a week; mean ± SD
Procedure: 2 × 10^5 PANC-1 or Mia-PaCa2 cells were inoculated subcutaneously in the right flank of 6-week old C57BL/6 female nude mice (Charles River Laboratories Italia, Calco), housed (5 per cage) under a 12 h light/dark cycle, with food and drinking water provided ad libitum. Tumor growth was measured daily by caliper, according to the equation (LxW^2)/2, where L = tumor length and W = tumor width. […] Tumor volumes and animal weights were monitored daily. Animals were euthanized at day 18 or 36 after randomization with zolazepam (0.2 ml/kg) and xylazine (16 mg/kg). […] Red blood cell (RBC) count, hemoglobin (Hb), white blood cell (WBC) count, platelet (PLT) count, lactate dehydrogenase (LDH), aspartate aminotransferase (AST), alanine aminotransferase (ALT), alkaline phosphatase (AP), creatinine and creatine phosphokinase (CPK) were measured in blood samples collected immediately after euthanasia, using commercially available kits from Beckman Coulter Inc (Beckman Coulter, Miami, FL, USA).
Blood was collected immediately after euthanasia and analyzed for red blood cells (RBC) count, hemoglobin (Hb), white blood cells (WBC) count, platelets (PLT) count, lactate dehydrogenase (LDH), aspartate aminotransferase (AST), alanine aminotransferase (ALT), alkaline phosphatase (AP), creatinine, creatine phosphokinase (CPK). Data are presented as means ± SD.

MiaPaCa2 xenografts = experiment: In vivo xenograft assay, MiaPaCa2; design: species or system mice; conditions: gemcitabine 20 mg/kg twice a week, 15 days
Procedure: 2 × 10^5 PANC-1 or Mia-PaCa2 cells were inoculated subcutaneously in the right flank of 6-week old C57BL/6 female nude mice (Charles River Laboratories Italia, Calco), housed (5 per cage) under a 12 h light/dark cycle, with food and drinking water provided ad libitum. Tumor growth was measured daily by caliper, according to the equation (LxW^2)/2, where L = tumor length and W = tumor width. When tumors reached a volume of 100 mm^3, the mice (n = 8/group) were randomized in the following groups and treated daily for 15 days or 30 days intraperitoneally as reported: (1) Vehicle group (100 µl saline solution), (2) FA4^low group (750 nmol FA4 in 100 µl saline solution), (3) FA4^high group (1500 nmol FA4 in 100 µl saline solution) and (4) Gemcitabine group (20 mg/kg gemcitabine, twice a week). Tumor volumes and animal weights were monitored daily. Animals were euthanized at day 18 or 36 after randomization with zolazepam (0.2 ml/kg) and xylazine (16 mg/kg). Next, tumors were excised and paraffin-embedded. […] Quantification of the immunohistochemical analyses was performed using ImageJ software (https://imagej.nih.gov/). The staining intensities were expressed as arbitrary units and considered 1 in the vehicle group.

PANC-1 xenografts = experiment: In vivo xenograft assay, PANC-1; design: species or system mice; conditions: for tumor growth: gemcitabine 20 mg/kg twice a week
Procedure: 2 × 10^5 PANC-1 or Mia-PaCa2 cells were inoculated subcutaneously in the right flank of 6-week old C57BL/6 female nude mice (Charles River Laboratories Italia, Calco), housed (5 per cage) under a 12 h light/dark cycle, with food and drinking water provided ad libitum. Tumor growth was measured daily by caliper, according to the equation (LxW^2)/2, where L = tumor length and W = tumor width. When tumors reached a volume of 100 mm^3, the mice (n = 8/group) were randomized in the following groups and treated daily for 15 days or 30 days intraperitoneally as reported: (1) Vehicle group (100 µl saline solution), (2) FA4^low group (750 nmol FA4 in 100 µl saline solution), (3) FA4^high group (1500 nmol FA4 in 100 µl saline solution) and (4) Gemcitabine group (20 mg/kg gemcitabine, twice a week). Tumor volumes and animal weights were monitored daily. Animals were euthanized at day 18 or 36 after randomization with zolazepam (0.2 ml/kg) and xylazine (16 mg/kg). Next, tumors were excised and paraffin-embedded. Sections were immuno-stained for cleaved caspase 3 (Cell Signalling Technology, Danvers, MA, USA) or with an anti-malondialdehyde antibody (Abcam), followed by a peroxidase-conjugated secondary antibody (Dako, Glostrup, Denmark). The sections were examined under a Leica DC100 microscope (Leica, Wetzlar, Germany). Quantification of the immunohistochemical analyses was performed using ImageJ software (https://imagej.nih.gov/). The staining intensities were expressed as arbitrary units and considered 1 in the vehicle group.

[3] = test system: sigma-1 and sigma-2 receptor subtypes; design: method as in PMID 24106081; conditions: cited from earlier work

## CN(C)C(=S)N/N=C1\C(=O)N(CCCCN2CCN(C3CCCCC3)CC2)c2ccccc21 [PS3, (Z)-2-[1-[4-(4-cyclohexylpiperazin-1-yl)butyl]-2-oxoindolin-3-ylidene]-N,N-dimethylhydrazinecarbothioamide]
[1]
  mRNA expression of ER stress markers GRP78, ATF6, IRE1, PERK: none of the markers was increased in the other cells
BxPC3 cells
  pEC50: 5.21
AspC1 cells
  pEC50: 5.41
MiaPaCa2 cells
  pEC50: 5.00
HPDE cells
  pEC50: 5.27
KP02 cells
  pEC50: 5.14
PANC02 cells
  pEC50: 5.93
PANC-1 cells
  pEC50: 5.06

## COc1cc2c(cc1OC)CN(CCCCN1C(=O)/C(=N\NC(=S)N(C)C)c3ccccc31)CC2 [MLP44, (Z)-2-(1-(4-(6,7-dimethoxy-3,4-dihydroisoquinolin-2(1H)-yl)butyl)-2-oxoindolin-3-ylidene)-N,N-dimethylhydrazinecarbothioamide]
[1]
  mRNA expression of ER stress markers GRP78, ATF6, IRE1, PERK: none of the markers was increased in the other cells
BxPC3 cells
  pEC50: 5.63
AspC1 cells
  pEC50: 5.70
MiaPaCa2 cells
  pEC50: 4.84
HPDE cells
  pEC50: 5.02
KP02 cells
  pEC50: 5.16
PANC02 cells
  pEC50: 5.88
PANC-1 cells
  pEC50: 4.84

## Nc1ccn([C@@H]2O[C@H](CO)[C@@H](O)C2(F)F)c(=O)n1 [gemcitabine]
[2]
  ALT: 36±12 U/l
  AP: 134±43 U/l
  AST: 142±18 U/l
  CPK: 309±32 U/l
  Hb: 11.03 ± 1.94 g/dL
  LDH: 6704±832 U/l
  PLT: 931±165 x 10^3/µl
  RBC: 11.28±0.98 x 10^6/µl
  WBC: 12.18±2.39 x 10^3/µl
MiaPaCa2 xenografts
  tumor growth: MiaPaCa2 tumors were more sensitive to gemcitabine
PANC-1 xenografts; 15 days
  tumor growth: ineffective against this tumor cell line
PANC-1 xenografts; 30 days
  tumor growth: not able to significantly reduce tumor growth
PANC-1 xenografts; gemcitabine, 30 days
  intratumor apoptosis (cleaved caspase 3) and lipid peroxidation: low or undetectable

## Fc1ccc(-n2cc(CCCCN3CCC4(CC3)OCc3ccccc34)c3ccccc32)cc1 [siramesine]
[3]
  binding to sigma-1 versus sigma-2 receptor subtypes: binds equally well to the sigma-1 and sigma-2 receptor subtypes

## CN(C)C(=S)N/N=C1\C(=O)Nc2ccccc21 [ACthio-1, (Z)-N,N-dimethyl-2-(2-oxoindolin-3-ylidene)hydrazinecarbothioamide]
[1]
  mRNA expression of ER stress markers GRP78, ATF6, IRE1, PERK: none of the markers was increased in the other cells
BxPC3 cells
  pEC50: 5.60
AspC1 cells
  pEC50: 5.66
MiaPaCa2 cells
  pEC50: 4.74
HPDE cells
  pEC50: 4.98
KP02 cells
  pEC50: 5.55
PANC02 cells
  pEC50: 5.92
PANC-1 cells
  pEC50: < 4.00
